Results reported in the supplement of paper PMC10307832.

Tests used:
Experiment in all cases: relative viability (nuclei count vs DMSO), 5 days (fraction); higher = more cells survive
[1] = compound: C1CC2=C(C1)C=C(C=C2)OC3=NC(=C4C(=N3)N(C=N4)CC5=CC=C(C=C5)C6=CC=CC=C6)N[C@@H](CC7=CC=CC=C7)CO [QS11] + COc1cc2c(Oc3ccc(NC(=O)C4(C(=O)Nc5ccc(F)cc5)CC4)cc3F)ccnc2cc1OCCCN1CCOCC1 [Foretinib] (partner 0.25 µM)
In short: (§1)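 Relative viability divides the nuclei count in treated wells by that in vehicle wells. Lung cancer cell lines were seeded in 1536-well plates, dosed by pin tool the next day, and fixed and stained after 5 days in one step with final 0.05% Triton X-100, 1% formaldehyde and 1 ug/ml Hoechst. Dosing was a single drug or a fixed anchor-drug dose plus five library-drug doses (not always all listed) in √10 steps, and values are medians of duplicate plates imaged at 4×.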

[2] = compound: C1CC2=C(C1)C=C(C=C2)OC3=NC(=C4C(=N3)N(C=N4)CC5=CC=C(C=C5)C6=CC=CC=C6)N[C@@H](CC7=CC=CC=C7)CO [QS11] + C[C@]1(O)C[C@@H](c2nc(-c3ccc4ccc(-c5ccccc5)nc4c3)c3c(N)nccn32)C1 [Linsitinib] (partner 1 µM)
In short: as §1

[3] = compound: C[As](C)SC[C@H](NC(=O)CC[C@H](N)C(=O)O)C(=O)NCC(=O)O [Darinaparsin] + C[C@]1(O)C[C@@H](c2nc(-c3ccc4ccc(-c5ccccc5)nc4c3)c3c(N)nccn32)C1 [Linsitinib] (partner 1 µM)
In short: as §1

[4] = compound: C[As](C)SC[C@H](NC(=O)CC[C@H](N)C(=O)O)C(=O)NCC(=O)O [Darinaparsin] + Cc1cc(Nc2cc(N3CCN(C)CC3)nc(Sc3ccc(NC(=O)C4CC4)cc3)n2)n[nH]1 [Tozasertib] (partner 0.1 µM)
In short: as §1

| Cell Line | relative viability ([1]; first compound 0.08 µM) | relative viability ([1]; first compound 0.253 µM) | relative viability ([1]; first compound 0.8 µM) | relative viability ([1]; first compound 2.53 µM) | relative viability ([1]; first compound 8 µM) | relative viability ([2]; first compound 0.08 µM) | relative viability ([2]; first compound 0.253 µM) | relative viability ([2]; first compound 2.53 µM) | relative viability ([2]; first compound 8 µM) | relative viability ([3]; first compound 0.08 µM) | relative viability ([3]; first compound 0.8 µM) | relative viability ([3]; first compound 2.53 µM) | relative viability ([3]; first compound 8 µM) | relative viability ([4]; first compound 0.08 µM) | relative viability ([4]; first compound 0.8 µM) | relative viability ([4]; first compound 2.53 µM) | relative viability ([4]; first compound 8 µM) | relative viability ([2]; first compound 0.8 µM) |
| --- | --- | --- | --- | --- | --- | --- | --- | --- | --- | --- | --- | --- | --- | --- | --- | --- | --- | --- |
| HCC-15 | 0.999 | 1.12 | 0.764 | 1.01 | 0.899 | 0.965 | 0.993 | 0.857 | 0.841 | 0.878 | 0.881 | 0.78 | 1.01 | 0.525 | 0.347 | 0.298 | 0.364 |  |
| HCC-44 |  |  |  |  |  | 0.79 | 0.647 | 0.549 | 0.531 | 0.841 | 0.636 | 0.441 | 0.86 | 1.21 | 0.927 | 0.769 | 0.87 | 0.532 |
| HCC-78 | 0.538 | 0.494 | 0.606 | 0.689 | 0.66 | 0.517 | 0.528 | 0.579 | 0.514 | 0.502 | 0.56 | 0.588 | 0.424 | 0.449 | 0.461 | 0.386 | 0.491 | 0.463 |
| HCC-366 | 0.985 | 0.962 |  | 0.895 | 0.147 | 0.696 | 0.575 | 0.355 | 0.303 | 0.969 | 0.609 | 0.427 | 1.06 | 0.147 | 0.0892 | 0.149 | 0.168 |  |
| HCC-827 | 1.05 | 1.05 | 0.8 | 1.02 | 0.812 | 0.977 | 1.04 | 0.929 | 0.821 | 1.01 | 0.93 | 0.965 | 1.09 | 0.435 | 0.453 | 0.422 | 0.491 | 0.877 |
| HOP-62 | 1.11 | 1.33 | 0.766 | 0.742 | 0.708 | 0.784 | 1.05 | 0.616 | 0.913 | 1.25 | 0.94 | 0.899 | 1.02 | 0.352 | 0.414 | 0.343 | 0.354 | 0.852 |
| IA-LM | 1.22 | 1.15 |  | 1.12 | 0.969 | 0.548 | 0.417 | 0.389 | 0.601 | 0.949 | 0.8 | 0.533 | 0.681 |  |  |  |  | 0.29 |
| LC-2-ad | 0.921 | 0.924 | 0.839 | 1.04 | 0.889 | 0.791 | 0.832 | 0.817 | 0.829 | 0.98 | 0.808 | 0.812 | 0.843 | 0.49 | 0.425 | 0.329 | 0.35 | 0.699 |
| LCLC-103H | 0.526 | 0.883 | 0.672 | 0.7 | 0.784 | 1.08 | 1.1 | 1.21 | 1.09 | 1.12 | 1.05 | 0.936 | 1.24 | 0.491 | 0.517 | 0.507 | 0.441 | 0.74 |
| LK-2 | 1.13 | 1.38 | 1.41 | 1.13 | 1.09 | 0.341 | 0.619 | 0.31 | 0.81 | 0.486 | 0.459 | 0.658 | 0.637 | 0.203 |  | 0.177 | 0.175 | 0.668 |
| NCI-H522 |  |  |  |  |  |  |  |  |  |  |  |  |  | 0.508 | 0.602 | 0.534 | 0.599 |  |
| NCI-H1299 | 1.14 | 1.11 | 0.956 | 1.04 | 0.948 | 0.999 | 0.995 | 0.87 | 0.959 | 1.1 | 1 | 0.912 | 1.2 |  |  |  |  | 0.787 |
| NCI-H1563 | 0.971 | 0.876 | 1.06 | 1.07 | 0.916 | 1.16 | 1.3 | 1.34 | 1.32 | 1.23 | 1.14 | 1.21 | 1.3 |  |  |  |  | 1.26 |
| NCI-H1623 | 0.807 | 0.829 | 0.751 | 0.775 | 1.01 |  |  |  |  |  |  |  |  | 0.467 | 0.404 | 0.416 | 0.399 |  |
| NCI-H1648 |  |  |  |  |  |  |  |  |  |  |  |  |  | 0.346 | 0.53 |  | 0.474 |  |
| NCI-H1650 | 1 | 1.25 | 0.799 | 1.14 | 1.19 |  |  |  |  |  |  |  |  | 0.473 | 0.325 | 0.417 | 0.394 |  |
| NCI-H1703 | 0.306 | 0.309 | 0.333 | 0.422 | 0.322 | 1.1 | 0.48 | 0.752 | 0.611 | 1.42 | 0.774 | 0.797 | 0.799 |  |  |  |  | 1.06 |
| NCI-H1792 |  |  |  |  |  |  | 0.559 | 0.537 | 0.68 | 0.571 | 0.488 | 0.402 | 0.536 |  |  |  |  | 0.43 |
| NCI-H2170 | 1.02 | 0.987 | 0.77 | 1.06 | 1.06 |  |  |  |  |  |  |  |  | 0.667 | 0.793 | 0.617 | 1.03 |  |
| NCI-H2342 | 1.02 | 1.07 | 1.07 | 1.02 | 1.19 |  |  |  |  |  |  |  |  | 0.545 | 0.443 | 0.53 | 0.44 |  |
| SW 900 | 0.981 | 0.875 | 0.844 | 0.774 | 0.8 |  |  |  |  |  |  |  |  | 0.677 | 0.538 | 0.658 | 0.555 |  |
